Data published in the NIST ThermoML archive (doi:10.1021/acs.jced.5b00691).

Columns and labels:
[1] = for surface tension liquid-gas: surface light scattering; for kinematic viscosity / mass density: Liquid; for kinematic viscosity: Surface laser light scattering (SLLS); for mass density: Vibrating tube method
[2] = xn = mol fraction of the nth substance listed; conditions: for surface tension liquid-gas: surface light scattering; for kinematic viscosity / mass density: Liquid; for kinematic viscosity: Surface Light Scattering; for mass density: Vibrating tube method

CCOC(F)(C(F)(F)C(F)(F)C(F)(F)F)C(F)(C(F)(F)F)C(F)(F)F (stereo not given) [2-trifluoromethyl-3-ethoxydodecafluorohexane]
[1]
Conditions	kinematic viscosity [m2/s]	mass density [kg/m3]	surface tension liquid-gas [mN/m]
273.15 K	1.14e-06	1670.6	16.92
278.15 K	–	1660.59	–
283.15 K	9.38e-07	1650.49	16.23
288.15 K	–	1640.35	–
293.15 K	8.04e-07	1630.17	15.52
298.15 K	–	1619.92	–
303.15 K	6.91e-07	1609.61	14.75
308.15 K	–	1599.24	–
313.15 K	6.11e-07	1588.77	14.07
318.15 K	–	1578.28	–
323.15 K	5.38e-07	1567.69	13.3
328.15 K	–	1557	–
333.15 K	4.71e-07	1546.2	12.65
338.15 K	–	1535.3	–
343.15 K	4.28e-07	1524.31	11.89
348.15 K	–	1513.21	–
353.15 K	3.88e-07	1501.99	11.13
358.15 K	–	1490.64	–
363.15 K	3.52e-07	1479.16	10.4
373.15 K	3.17e-07	–	9.66

CCOC(F)(F)C(F)(C(F)(F)F)C(F)(F)F [nonafluoroisobutyl ethyl ether] + CCOC(F)(F)C(F)(F)C(F)(F)C(F)(F)F
[2], x1 = 0.613
Conditions	kinematic viscosity [m2/s]	mass density [kg/m3]	surface tension liquid-gas [mN/m]
273.15 K	6.63e-07	1478.05	16.03
278.15 K	–	1467.14	–
283.15 K	5.56e-07	1456.15	14.9
288.15 K	–	1445.07	–
293.15 K	4.82e-07	1433.94	14.01
298.15 K	–	1422.65	–
303.15 K	4.29e-07	1411.31	13.21
308.15 K	–	1399.85	–
313.15 K	3.82e-07	1388.27	12.33
318.15 K	–	1376.56	–
323.15 K	3.43e-07	1364.66	11.42
328.15 K	–	1352.68	–
333.15 K	3.13e-07	1340.45	10.56
338.15 K	–	1328.09	–
343.15 K	2.83e-07	1315.57	9.67
348.15 K	–	1302.85	–
353.15 K	2.56e-07	1289.93	8.84
358.15 K	–	1276.74	–
363.15 K	2.38e-07	1263.25	7.99
373.15 K	2.22e-07	–	7.19

COC(F)(C(F)(F)C(F)(F)F)C(F)(C(F)(F)F)C(F)(F)F (stereo not given)
[1]
Conditions	kinematic viscosity [m2/s]	mass density [kg/m3]	surface tension liquid-gas [mN/m]
273.15 K	1.01e-06	1714.26	16.56
278.15 K	–	1702.92	–
283.15 K	8.49e-07	1691.49	15.81
288.15 K	–	1680.02	–
293.15 K	7.37e-07	1668.48	14.97
298.15 K	–	1656.86	–
303.15 K	6.31e-07	1645.14	14.15
308.15 K	–	1633.38	–
313.15 K	5.56e-07	1621.44	13.43
318.15 K	–	1609.41	–
323.15 K	4.92e-07	1597.29	12.61
328.15 K	–	1585.05	–
333.15 K	4.36e-07	1572.65	11.79
338.15 K	–	1560.14	–
343.15 K	3.95e-07	1547.49	11.03
348.15 K	–	1534.67	–
353.15 K	3.52e-07	1521.68	10.16
358.15 K	–	1508.51	–
363.15 K	3.15e-07	1495.16	9.43
373.15 K	2.88e-07	–	8.64

COC(F)(F)C(F)(F)C(F)(F)F [heptafluoropropyl methyl ether]
[1]
Conditions	kinematic viscosity [m2/s]	mass density [kg/m3]	surface tension liquid-gas [mN/m]
273.15 K	4.22e-07	1471.16	14.49
278.15 K	–	1458.15	–
283.15 K	3.65e-07	1444.94	13.31
288.15 K	–	1431.58	–
293.15 K	3.3e-07	1418.04	12.33
298.15 K	–	1404.3	–
303.15 K	2.9e-07	1390.35	11.23
308.15 K	–	1376.15	–
313.15 K	2.64e-07	1361.67	10.27
318.15 K	–	1346.91	–
323.15 K	2.37e-07	1331.89	9.23
328.15 K	–	1316.54	–
333.15 K	2.2e-07	1300.86	8.28
338.15 K	–	1284.82	–
343.15 K	2.01e-07	1268.38	7.36
348.15 K	–	1251.45	–
353.15 K	1.8e-07	1234.05	6.38
358.15 K	–	1216.87	–
363.15 K	1.66e-07	1199.54	5.48
373.15 K	1.53e-07	–	4.62

COC(F)(F)C(F)(C(F)(F)F)C(F)(F)F [methyl nonafluoroisobutyl ether] + COC(F)(F)C(F)(F)C(F)(F)C(F)(F)F
[2], x1 = 0.623
Conditions	kinematic viscosity [m2/s]	mass density [kg/m3]	surface tension liquid-gas [mN/m]
273.15 K	6.64e-07	1579.23	15.82
278.15 K	–	1566.86	–
283.15 K	5.7e-07	1554.37	14.82
288.15 K	–	1541.76	–
293.15 K	4.84e-07	1529.03	13.8
298.15 K	–	1516.15	–
303.15 K	4.28e-07	1503.18	12.89
308.15 K	–	1490.04	–
313.15 K	3.81e-07	1476.74	11.92
318.15 K	–	1463.23	–
323.15 K	3.38e-07	1449.5	11
328.15 K	–	1435.61	–
333.15 K	3.06e-07	1421.48	10.06
338.15 K	–	1407.13	–
343.15 K	2.77e-07	1392.52	9.13
348.15 K	–	1377.65	–
353.15 K	2.46e-07	1362.5	8.16
358.15 K	–	1347.04	–
363.15 K	2.28e-07	1331.24	7.32
373.15 K	2.09e-07	–	6.46
